For series [1], the system named is POP. The conditions noted are these: clinical phase 1 and 2; ref López et al., 2013; cited from earlier work. The source says:
Ethnomedicinal studies have shown beneficial effects of cyclotide expressing plants in few disease conditions with relationship to POP. For instance, African traditional medicine describes the therapeutic application of Rinorea dentata (P. Beauv.) Kuntze from the Violaceae toward neurodegenerative diseases ([Sonibare and Ayoola, 2015]). […] To make use of these beneficial effects it will be necessary to further investigate P ...

In series [2] the target is T1, human POP (Homo sapiens, UniProt P48147).
T1 construct: the full-length untagged protein was obtained after site-specific cleavage; GST (N, cleaved yes); made in house; host or cells: Escherichia coli BL21 (D3 [sic] strain)
T1 sequence (P48147 1-710): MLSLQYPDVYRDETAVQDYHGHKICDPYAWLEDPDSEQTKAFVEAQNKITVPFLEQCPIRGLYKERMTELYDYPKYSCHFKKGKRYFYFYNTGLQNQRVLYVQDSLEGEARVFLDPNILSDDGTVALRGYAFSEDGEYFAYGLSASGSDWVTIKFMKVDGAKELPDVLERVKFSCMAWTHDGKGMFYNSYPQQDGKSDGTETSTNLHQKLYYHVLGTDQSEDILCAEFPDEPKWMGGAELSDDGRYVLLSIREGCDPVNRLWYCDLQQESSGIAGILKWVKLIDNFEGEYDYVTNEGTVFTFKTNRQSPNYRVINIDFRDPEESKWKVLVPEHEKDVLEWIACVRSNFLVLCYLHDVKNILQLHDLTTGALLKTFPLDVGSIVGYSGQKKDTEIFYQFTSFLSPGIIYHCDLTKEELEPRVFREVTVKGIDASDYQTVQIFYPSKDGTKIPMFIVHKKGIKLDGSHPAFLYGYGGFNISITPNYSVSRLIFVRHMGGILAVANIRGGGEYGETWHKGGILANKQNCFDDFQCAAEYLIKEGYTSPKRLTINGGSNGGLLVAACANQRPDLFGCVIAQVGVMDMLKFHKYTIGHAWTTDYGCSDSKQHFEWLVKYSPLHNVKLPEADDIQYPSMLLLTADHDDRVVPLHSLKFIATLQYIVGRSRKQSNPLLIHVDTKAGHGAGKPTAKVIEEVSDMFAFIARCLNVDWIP
Put plainly: POP enzyme kinetics (Michaelis-Menten) with Z-Gly-Pro-amino-coumarin. Particulars: substrate Z-Gly-Pro-amino-coumarin, optimized assay buffer 20 mM Hepes pH 7.2, 150 mM NaCl, 1 mM EDTA, 0.5 mM DTT. It counts as biochemical. The procedure:
The POP inhibition assays were carried out similarly as recently described ([Hellinger et al., 2015a]; [Retzl et al., 2020]) using a bacterial expressed POP enzyme. Human POP cDNA (accession NM:002726.4) was inserted into a pGEX-6P1 expression vector using the EcoRI and XhoI sites (Genescript, Leiden, Netherlands) and expressed in Escherichia coli (BL21 D3 strain). Protein expression was induced by addition of 0.3–0.5 mM isopropyl-β-D-thiogalactopyranoside (ProteinArk, Rotterdam, Netherlands) at an optical density (OD600) between 0.6 and 0.8 to the bacterial culture and incubated at 25°C under constant shaking. The protein was harvested at an OD600 between 1.4 and 1.5. POP was purified via GST-affinity capture beads. […] The protein concentration was determined with bicinchoninic acid assay (ThermoFisher). […] The protease activity was quantified as fluorescence from the proteolytically cleaved amino-coumarin fluorophore with excitation 380 nm and emission 420 nm on a Biotek Synergy H4 plate reader. The fluorogenic substrate provide elevated fluorescence by the delocalization of electrons after the amide bond cleavage and release of the 7 amino coumarin moiety. […] The percent remaining POP activity was calculated as I = (vi/vo)*100. […]

Series [3] can be described thus: Precipitation of the substrate in POP assay. The conditions noted are these: optimized POP assay conditions, tested between 0.766 µM and 300 µM. It counts as physicochemical. On the procedure:
Supplementary Figure S3. POP purification and optimization of the assay system.Human POP wa s expressed in E. coliand purified as functional protease. The purification steps were analyzed using a Coomassie stained protein gel. Purifi ed POP enzyme is shown in lane 7 after site-specific cleavage with PreS cissi on protease and rel ease of the untagg ed protein (A). Different assay conditions were tested to study the effect of buffer sy stems and pH dependency (B,C), the use of organi c solve nts (D), DTT (E) and NaCl (F) concentration on POP enzyme activ ity. For calculation of POP activ ity the slope in the li near range between 5 and 35 mi n of kinetic measurements were used. With the optim ized conditionsZ-Gly-Pro-amino-coumarin concentrations between 0.766 µM and 300 µM were tested in a kinetic measurement and a con centration dependent increase in sig nal was observed. Above 150 µM substrate concentration no further increase in sig nal was measured due to preci pitation of the substra te (G). Al l data are shown as mean of three biologi cal experim ents and error is shown as ±SEM.
(1 picture or pasted object on this page, not shown here)

Series [4] deals with T1, human POP. The series is described as follows: POP inhibition assay, Z-Gly-Pro-amino-coumarin substrate. It counts as biochemical.
Protocol: The POP inhibition assays were carried out similarly as recently described ([Hellinger et al., 2015a]; [Retzl et al., 2020]) using a bacterial expressed POP enzyme. […] For enzyme inhibition assays human POP (50 ng/well) was incubated in assay buffer (20 mM Hepes pH 7.2, 150 mM NaCl, 1 mM EDTA, 0.5 mM DTT) together with substrate Z-Gly-Pro-amino-coumarin (final concentration 45 µM) at 37°C for 60 min. […] All experiments were performed in 96-microtiter black bottom plates. Concentration-response inhibition assays were performed with [S] = K m, which is considered a suitable condition for evaluating samples of unknown inhibition mode (e.g. competitive, noncompetitive or uncompetitive reversible inhibition). The protease activity was quantified as fluorescence from the proteolytically cleaved amino-coumarin fluorophore with excitation 380 nm and emission 420 nm on a Biotek Synergy H4 plate reader. The fluorogenic substrate provide elevated fluorescence by the delocalization of electrons after the amide bond cleavage and release of the 7 amino coumarin moiety. All samples for protease inhibition assays were prepared in ddH2O. Concentration-dependent inhibition studies were performed with the peptide enriched extracts (2–1,000 μg/ml) or isolated peptides (0.1–60 µM). For bioassay-guided isolation HPLC fractions were assayed for POP inhibition with three concentrations (4, 20 and 100 μg/ml). Kinetic measurements were carried out to obtain initial velocities in the presence of sample (vi) or enzyme alone (vo) ([Arnison et al., 2013]). The percent remaining POP activity was calculated as I = (vi/vo)*100. A substrate background was used for correction of all measurements. KYP-2047, a specific POP inhibitor, was used as positive control in the assays. […] Four parameter non-linear regression curve fits were obtained using GraphPad Prism v5.0 fitting algorithms with equation Y=Bottom + (Top-Bottom)/(1 + 10^((LogIC50-X)*Hill Slope)) in which X is the log dose and Y the measured response.
Series [5] deals with POP. The arrangement: method as in 3 sources, ref Hellinger et al., 2015a ||| ref Tarrago et al., 2007; Tarragó et al., 2008; Cahlíková et al., 2015 ||| ref Retzl et al., 2020. The conditions noted are these: cited from earlier work; for POP inhibition (in words): alkaloids and flavonoids, ref Tarrago et al., 2007, Tarragó et al., 2008, Cahlíková et al., 2015. On the procedure:
Previous phytochemical studies identified natural products as inhibitors for POP such as small molecule entities and natural peptides. […] A sequence logo was prepared to compare the amino acid positions for conserved residues or to identify variable positions (Figure 7C).

Bridge positions count the residues as written; N and C are the ends. Peptide text beside a SMILES is read from it. * marks the point of attachment. AMC = Cc1cc(=O)oc2cc(N*)ccc12; Cbz = O=C(OCc1ccccc1)*

Regarding `O=C(CO)[C@@H]1CCCN1C(=O)[C@@H]1CCCN1C(=O)NCc1ccccc1` [JTP-4819], the “clinical outcome (in words)” value with POP [1] is “failed to succeed or provided ambiguous outcomes in their clinical phase”. On to `Cc1cc(=O)oc2cc(NC(=O)[C@@H]3CCCN3C(=O)CNC(=O)OCc3ccccc3)ccc12` [Z-Gly-Pro-amino-coumarin] (Cbz-Gly-Pro-{AMC}), for which, on human POP [2], the K m stood at 42.4 µM and the Vmax was found to be 0.00015 µmol/min. Moreover, the “substrate concentration above which precipitation of the substrate occurs” value in series [3] is “Above 150 µM”. Regarding `CC[C@H](C)[C@@H]1NC(=O)[C@H](C)NC(=O)[C@H](C)NC(=O)[C@H](CO)NC(=O)[C@H]([C@@H](C)CC)NC(=O)[C@@H]2CSSC[C@@H]3NC(=O)[C@H](C(C)C)NC(=O)[C@H](CCCCN)NC(=O)[C@H](CC(N)=O)NC(=O)[C@H](CCCCN)NC(=O)[C@@H]4CSSC[C@H](NC(=O)[C@H](CO)NC(=O)[C@H](CCC(=O)O)NC(=O)CNC(=O)[C@H](CSSC[C@H](NC(=O)CNC1=O)C(=O)N[C@@H](CO)C(=O)N4)NC(=O)[C@@H]1CCCN1C(=O)[C@H]([C@@H](C)CC)NC(=O)[C@H](C(C)C)NC(=O)CNC(=O)[C@H](CC(=O)O)NC(=O)[C@H](CCCNC(=N)N)NC(=O)[C@H](Cc1ccc(O)cc1)NC3=O)C(=O)N[C@@H](C(C)C)C(=O)N[C@@H](Cc1ccccc1)C(=O)N[C@@H]([C@@H](C)CC)C(=O)N1CCC[C@H]1C(=O)N2` [alca 1] (cyclo(AAIGCSCKNKVCYRDGVIPCGESCVFIPCIS); disulfide 5-20, 7-24, 12-29), on human POP [4], the IC50 is 8.5 ± 5.9 µM. At human POP [4] (sigmoidal inhibition curves of isolated peptides, four parameter non-linear regression, mean ± standard deviation, three or five biological experiments, respectively (alca 1, alca 2)), this compound registered a Hill slope of −1.2 ± 0.1.

As to `CC[C@H](C)[C@@H]1NC(=O)[C@@H]2CSSC[C@@H]3NC(=O)[C@H](C(C)C)NC(=O)[C@H](CCCCN)NC(=O)[C@H](CC(N)=O)NC(=O)[C@H](CO)NC(=O)[C@@H]4CSSC[C@H](NC(=O)[C@H](CO)NC(=O)[C@H](CCC(=O)O)NC(=O)CNC(=O)[C@H](CSSC[C@H](NC(=O)CNC(=O)[C@H](CC(C)C)NC(=O)[C@H](C(C)C)NC(=O)CNC(=O)[C@H](CO)NC1=O)C(=O)N[C@@H](CO)C(=O)N4)NC(=O)[C@@H]1CCCN1C(=O)[C@H]([C@@H](C)CC)NC(=O)CNC(=O)[C@H](CC(N)=O)NC(=O)[C@H](CCCNC(=N)N)NC(=O)[C@H](Cc1ccc(O)cc1)NC3=O)C(=O)N[C@@H](C(C)C)C(=O)N[C@@H](Cc1ccccc1)C(=O)N[C@@H]([C@@H](C)CC)C(=O)N1CCC[C@H]1C(=O)N2` [alca 2] (cyclo(CGESCVFIPCISGVLGCSCSNKVCYRNGIP); disulfide 1-17, 5-19, 10-24), the IC50 at human POP [4] turned out to be 4.4 ± 0.7 µM. Take `O=c1cc(-c2ccccc2)oc2cc(O)c(O)c(O)c12` [balcalein]: the “POP inhibition (in words)” value with POP [5] was “inhibit POP activity”.

Regarding `COc1ccc2cc3[n+](cc2c1OC)CCc1cc2c(cc1-3)OCO2` [berberine], the “POP inhibition (in words)” value in the series with POP [5] is “inhibit POP activity”. For the compound `C[N+]1(C)[C@H]2Cc3cc4c(cc3[C@@H]1Cc1cc3c(cc12)COC3)OCO4` [californidine], the “POP inhibition (in words)” value with POP [5] is reported as “inhibit POP activity”. On to “kalata B1: cyclotide, amongst others in V. tricolor L., Moebius type (cyclo(GLPVCGETCVGGTCNTPGCTCSWPVCTRN); disulfide 14-26, 5-19, 9-21; UniProt P56254 89-117, looked up)”, for which the IC50 in the series on POP [5] (POP, ref Hellinger et al., 2015a, read-out: half maximal inhibitory concentration (IC50)) is 5.6 µM.

The values are drawn from PMC8311463, “Cyclotides Isolated From Violet Plants of Cameroon Are Inhibitors of Human Prolyl Oligopeptidase” (Frontiers in Pharmacology, 2021).
